“And” between values parts separate entries of the source, which are not always exact repeats. Identical values can stand only once.
Key:
[1] = tested on: human plasma proteins; experiment: Binding of propranolol to human plasma proteins in the absence and presence of droloxifene or lasofoxifene (equilibrium dialysis, HPLC-MS); details: result in words; droloxifene 200 ng/ml, lasofoxifene 50 ng/ml
Protocol: (§1) The effect of droloxifene or lasofoxifene on plasma protein binding was assessed at […] concentrations of 2 and 10 µg/ml and propranolol concentrations of 50 and 500 ng/ml. The concentrations of droloxifene and lasofoxifene used were 200 and 50 ng/ml respectively.

[2] = Binding of droloxifene and lasofoxifene to human plasma proteins; details: human, plasma
[3] = tested on: human plasma proteins; experiment: as above; details: binding of the SERM itself, human plasma
[4] = Binding of propranolol to human plasma proteins in the absence and presence of droloxifene or lasofoxifene (equilibrium dialysis, HPLC-MS); details: human, plasma
Protocol: as §1

Structure (SMILES)	effect on the protein binding of propranolol in human plasma [1]	fraction unbound [2]	bound to human plasma proteins [3]	fraction unbound [4]
CC/C(=C(/c1ccc(OCCN(C)C)cc1)c1cccc(O)c1)c1ccccc1 [droloxifene]	will not be altered	3e-05	99.997%	
Oc1ccc2c(c1)CC[C@H](c1ccccc1)[C@@H]2c1ccc(OCCN2CCCC2)cc1 [lasofoxifene, (-) cis-6-phenyl-5[4-(2-pyrrolitin-1-yl-ehtoxy)-phenyl]-5,6,7,8-tetrahydronaphthalene-2-ol]	will not be altered		99.997% and 99.94%	
CC(C)NCC(O)COc1cccc2ccccc12 (stereo not drawn) [propranolol, reference compound]				0.24

Reference: EP1086692A2, “Estrogen agonists and antagonists for multiple indications” (priority 1999, dated 2001)
